In PubChem BioAssay AID1963846 (Molecular Pharmacology Branch, DTP, NCI, 2024):

Tested on: 454973-116-R2-J3-PDC complex spheroid viability
Experiment: Anticancer human tumor 454973-116-R2-J3-PDC patient-derived pancreatic carcinoma cell line growth inhibition [POLQ]
Settings: for IC50: curve of first compound; for viability, T/C: stronger effect = lower value
Method in brief: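 Growth inhibition in 3D: complex spheroids (tumor PDC, HUVEC, MSC) treated with POLQ inhibitor combinations; where Cmax unknown, highest tested concentration 10 microM, except SN-38 at 1 microM.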

[1] = second compound 0.0316 µM, first compound 0.0316 µM
[2] = second compound 0.0316 µM, first compound 0.1 µM
[3] = second compound 0.0316 µM, first compound 0.316 µM
[4] = second compound 0.0316 µM, first compound 1 µM
[5] = second compound 0.0316 µM, first compound 3.16 µM
[6] = second compound 0.0316 µM, first compound 10 µM
[7] = second compound 0.1 µM, first compound 0.0316 µM
[8] = second compound 0.1 µM, first compound 0.1 µM
[9] = second compound 0.1 µM, first compound 0.316 µM
[10] = second compound 0.1 µM, first compound 1 µM
[11] = second compound 0.1 µM, first compound 3.16 µM
[12] = second compound 0.1 µM, first compound 10 µM
[13] = second compound 0.316 µM, first compound 0.0316 µM
[14] = second compound 0.316 µM, first compound 0.1 µM
[15] = second compound 0.316 µM, first compound 0.316 µM
[16] = second compound 0.316 µM, first compound 1 µM
[17] = second compound 0.316 µM, first compound 3.16 µM
[18] = second compound 0.316 µM, first compound 10 µM
[19] = second compound 1 µM, first compound 0.0316 µM
[20] = second compound 1 µM, first compound 0.1 µM
[21] = second compound 1 µM, first compound 0.316 µM
[22] = second compound 1 µM, first compound 1 µM
[23] = second compound 1 µM, first compound 3.16 µM
[24] = second compound 1 µM, first compound 10 µM
[25] = second compound 3.16 µM, first compound 0.0316 µM
[26] = second compound 3.16 µM, first compound 0.1 µM
[27] = second compound 3.16 µM, first compound 0.316 µM
[28] = second compound 3.16 µM, first compound 1 µM
[29] = second compound 3.16 µM, first compound 3.16 µM
[30] = second compound 3.16 µM, first compound 10 µM
[31] = second compound 10 µM, first compound 0.0316 µM
[32] = second compound 10 µM, first compound 0.1 µM
[33] = second compound 10 µM, first compound 0.316 µM
[34] = second compound 10 µM, first compound 1 µM
[35] = second compound 10 µM, first compound 3.16 µM
[36] = second compound 10 µM, first compound 10 µM
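Note: spheroids exposed to drugs for seven days before measurement.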
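Throughout, for viability, T/C: percent viability relative to DMSO vehicle control wells taken as 100%.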

CC1COCCN1c1cc(C2(S(C)(=N)=O)CC2)nc(-c2ccnc3[nH]ccc23)n1 (stereo unspecified) + COC1C(OC(N)=O)C(O)C(Oc2ccc3c(O)c(NC(=O)c4ccc(O)c(CC=C(C)C)c4)c(=O)oc3c2C)OC1(C)C
IC50 (second compound 0.0316 µM): 5.99 µM
IC50 (second compound 0.1 µM): 6.04 µM
IC50 (second compound 0.316 µM): 7.3 µM
IC50 (second compound 1 µM): 6.19 µM
IC50 (second compound 3.16 µM): 6.15 µM
IC50 (second compound 10 µM): 6.05 µM
viability, T/C [1]: 102%
viability, T/C [2]: 104%
viability, T/C [3]: 105%
viability, T/C [4]: 102%
viability, T/C [5]: 77.1%
viability, T/C [6]: 28.1%
viability, T/C [7]: 107%
viability, T/C [8]: 114%
viability, T/C [9]: 101%
viability, T/C [10]: 101%
viability, T/C [11]: 71.8%
viability, T/C [12]: 32.8%
viability, T/C [13]: 103%
viability, T/C [14]: 110%
viability, T/C [15]: 116%
viability, T/C [16]: 105%
viability, T/C [17]: 81.1%
viability, T/C [18]: 38.3%
viability, T/C [19]: 127%
viability, T/C [20]: 104%
viability, T/C [21]: 109%
viability, T/C [22]: 109%
viability, T/C [23]: 68.2%
viability, T/C [24]: 37%
viability, T/C [25]: 118%
viability, T/C [26]: 99.9%
viability, T/C [27]: 101%
viability, T/C [28]: 97.2%
viability, T/C [29]: 75.8%
viability, T/C [30]: 30.9%
viability, T/C [31]: 114%
viability, T/C [32]: 97%
viability, T/C [33]: 104%
viability, T/C [34]: 93.9%
viability, T/C [35]: 74%
viability, T/C [36]: 31.2%

CCCS(=O)(=O)Nc1ccc(F)c(C(=O)c2c[nH]c3ncc(-c4ccc(Cl)cc4)cc23)c1F + COC1C(OC(N)=O)C(O)C(Oc2ccc3c(O)c(NC(=O)c4ccc(O)c(CC=C(C)C)c4)c(=O)oc3c2C)OC1(C)C
IC50 (second compound 0.0316 µM): 9.52 µM
IC50 (second compound 0.1 µM): > 10 µM
IC50 (second compound 0.316 µM): > 10 µM
IC50 (second compound 1 µM): > 10 µM
IC50 (second compound 3.16 µM): > 10 µM
IC50 (second compound 10 µM): > 10 µM
viability, T/C [1]: 98.9%
viability, T/C [2]: 106%
viability, T/C [3]: 101%
viability, T/C [4]: 114%
viability, T/C [5]: 110%
viability, T/C [6]: 47.5%
viability, T/C [7]: 98.9%
viability, T/C [8]: 118%
viability, T/C [9]: 103%
viability, T/C [10]: 113%
viability, T/C [11]: 109%
viability, T/C [12]: 54.8%
viability, T/C [13]: 107%
viability, T/C [14]: 114%
viability, T/C [15]: 103%
viability, T/C [16]: 110%
viability, T/C [17]: 103%
viability, T/C [18]: 57.3%
viability, T/C [19]: 120%
viability, T/C [20]: 107%
viability, T/C [21]: 109%
viability, T/C [22]: 117%
viability, T/C [23]: 108%
viability, T/C [24]: 57.3%
viability, T/C [25]: 112%
viability, T/C [26]: 109%
viability, T/C [27]: 103%
viability, T/C [28]: 106%
viability, T/C [29]: 105%
viability, T/C [30]: 62.8%
viability, T/C [31]: 114%
viability, T/C [32]: 104%
viability, T/C [33]: 97.2%
viability, T/C [34]: 106%
viability, T/C [35]: 109%
viability, T/C [36]: 65.5%

Cn1ncnc1[C@H]1c2n[nH]c(=O)c3cc(F)cc(c23)N[C@@H]1c1ccc(F)cc1 + COC1C(OC(N)=O)C(O)C(Oc2ccc3c(O)c(NC(=O)c4ccc(O)c(CC=C(C)C)c4)c(=O)oc3c2C)OC1(C)C
IC50 (second compound 0.0316 µM): > 0.1 µM
IC50 (second compound 0.1 µM): > 0.1 µM
IC50 (second compound 0.316 µM): > 0.1 µM
IC50 (second compound 1 µM): > 0.1 µM
IC50 (second compound 3.16 µM): > 0.1 µM
IC50 (second compound 10 µM): > 0.1 µM
viability, T/C (second compound 0.0316 µM, first compound 0.000316 µM): 100%
viability, T/C (second compound 0.0316 µM, first compound 0.001 µM): 111%
viability, T/C (second compound 0.0316 µM, first compound 0.00316 µM): 102%
viability, T/C (second compound 0.0316 µM, first compound 0.01 µM): 109%
viability, T/C [1]: 95.1%
viability, T/C [2]: 83.4%
viability, T/C (second compound 0.1 µM, first compound 0.000316 µM): 102%
viability, T/C (second compound 0.1 µM, first compound 0.001 µM): 112%
viability, T/C (second compound 0.1 µM, first compound 0.00316 µM): 105%
viability, T/C (second compound 0.1 µM, first compound 0.01 µM): 104%
viability, T/C [7]: 98.5%
viability, T/C [8]: 90.5%
viability, T/C (second compound 0.316 µM, first compound 0.000316 µM): 112%
viability, T/C (second compound 0.316 µM, first compound 0.001 µM): 114%
viability, T/C (second compound 0.316 µM, first compound 0.00316 µM): 105%
viability, T/C (second compound 0.316 µM, first compound 0.01 µM): 100%
viability, T/C [13]: 93.5%
viability, T/C [14]: 83.3%
viability, T/C (second compound 1 µM, first compound 0.000316 µM): 109%
viability, T/C (second compound 1 µM, first compound 0.001 µM): 102%
viability, T/C (second compound 1 µM, first compound 0.00316 µM): 107%
viability, T/C (second compound 1 µM, first compound 0.01 µM): 102%
viability, T/C [19]: 93.1%
viability, T/C [20]: 82.5%
viability, T/C (second compound 3.16 µM, first compound 0.000316 µM): 107%
viability, T/C (second compound 3.16 µM, first compound 0.001 µM): 111%
viability, T/C (second compound 3.16 µM, first compound 0.00316 µM): 104%
viability, T/C (second compound 3.16 µM, first compound 0.01 µM): 100%
viability, T/C [25]: 104%
viability, T/C [26]: 88.9%
viability, T/C (second compound 10 µM, first compound 0.000316 µM): 101%
viability, T/C (second compound 10 µM, first compound 0.001 µM): 96%
viability, T/C (second compound 10 µM, first compound 0.00316 µM): 98.3%
viability, T/C (second compound 10 µM, first compound 0.01 µM): 103%
viability, T/C [31]: 87.2%
viability, T/C [32]: 78.1%
